Data published in patent US9487476B2, “Catechol diethers as potent anti-HIV agents” (priority 2011, dated 2016).
Like-named read-outs stand apart in the source and are kept apart here.

Legend:
Assay type in all cases: cell-based
WT HIV-1 (IIIB strain) = assay: Anti-HIV-1 activity, protection of infected MT-2 cells (MTT)
MT-2 human T-cells = assay: Cytotoxicity, inhibition of MT-2 cell growth
[1] = test system: HIV-1 variant containing the Y181C (Tyr181Cys) mutation; assay: Anti-HIV-1 activity against variant strain in MT-2 cells (MTT); settings: Human immunodeficiency virus 1, MT2, read-out: EC50 Y181C
[2] = test system: HIV-1 variant containing the K103N/Y181C mutations; assay: Anti-HIV-1 activity against double-mutant strain in MT-2 cells (MTT); settings: Human immunodeficiency virus 1, MT2, read-out: EC50 K103N/Y181C
[3] = Human immunodeficiency virus 1, IIIB, MT2, running text, read-out: EC50 against WT HIV-1
[4] = Table 4, catechol diether derivatives, MT-2 cells, read-out: Anti-HIV-1 Activity (EC50)

Row | Structure (SMILES) | EC50 (WT HIV-1 (IIIB strain); [3]) [µM] | CC50 (MT-2 human T-cells; human) [µM] | further results
1 | Cc1ccc(OCCn2ccc(=O)[nH]c2=O)c(Cc2ccccc2)c1 [Compound 1, 1-(2-(2-benzyl-4-methylphenoxy)ethyl)pyrimidine-2,4(1H,3H)-dione] | 5 | – | –
2 | O=c1ccn(CCOc2ccc(Cl)cc2Cc2ccccc2)c(=O)[nH]1 [Compound 5, 1-(2-(2-benzyl-4-chlorophenoxy)ethyl)pyrimidine-2,4(1H,3H)-dione] | – | 23 | –
3 | O=c1ccn(CCOc2ccc(Cl)cc2Cc2ccccc2Cl)c(=O)[nH]1 [Compound 6, 1-(2-(4-chloro-2-(2-chlorobenzyl)phenoxy)ethyl)pyrimidine-2,4(1H,3H)-dione] | – | 28 | –
4 | O=c1ccn(CCOc2ccc(Cl)cc2Cc2cccc(Cl)c2)c(=O)[nH]1 [Compound 7, 1-(2-(4-chloro-2-(3-chlorobenzyl)phenoxy)ethyl)pyrimidine-2,4(1H,3H)-dione] | – | 11 | –
5 | O=c1ccn(CCOc2ccc(Cl)cc2Cc2ccc(Cl)cc2Cl)c(=O)[nH]1 [Compound 8, 1-(2-(4-chloro-2-(2,4-dichlorobenzyl)phenoxy)ethyl)pyrimidine-2,4(1H,3H)-dione] | – | 88 | –
6 | O=c1ccn(CCOc2ccc(Cl)cc2Cc2cc(Cl)cc(Cl)c2)c(=O)[nH]1 [Compound 9, 1-(2-(4-chloro-2-(3,5-dichlorobenzyl)phenoxy)ethyl)pyrimidine-2,4(1H,3H)-dione] | – | 10 | –
7 | O=c1ccn(CCOc2ccc(Cl)cc2Cc2cc(Cl)ccc2Cl)c(=O)[nH]1 [Compound 10, 1-(2-(4-chloro-2-(2,5-dichlorobenzyl)phenoxy)ethyl)pyrimidine-2,4(1H,3H)-dione] | – | 15 | –
8 | O=c1ccn(CCOc2ccc(Cl)cc2Cc2c(Cl)cccc2Cl)c(=O)[nH]1 [Compound 11, 1-(2-(4-chloro-2-(2,6-dichlorobenzyl)phenoxy)ethyl)pyrimidine-2,4(1H,3H)-dione] | – | 49 | –
9 | Cc1cn(CCOc2ccc(Cl)cc2Cc2ccccc2)c(=O)[nH]c1=O [Compound 12, 1-(2-(2-benzyl-4-chlorophenoxy)ethyl)-5-methylpyrimidine-2,4(1H,3H)-dione] | – | 22 | –
10 | O=c1[nH]c(=O)n(CCOc2ccc(Cl)cc2Cc2ccccc2)cc1F [Compound 13, 1-(2-(2-benzyl-4-chlorophenoxy)ethyl)-5-fluoropyrimidine-2,4(1H,3H)-dione] | – | 27 | –
11 | O=c1[nH]c(=O)n(CCOc2ccc(Cl)cc2Cc2ccccc2)cc1Cl [Compound 14, 1-(2-(2-benzyl-4-chlorophenoxy)ethyl)-5-chloropyrimidine-2,4(1H,3H)-dione] | – | 21 | –
12 | O=c1ccn(CCOc2cc(Cl)ccc2Cc2ccccc2Cl)c(=O)[nH]1 [Compound 15, 1-(2-(5-chloro-2-(2-chlorobenzyl)phenoxy)ethyl)pyrimidine-2,4(1H,3H)-dione] | – | 12 | –
13 | N#Cc1cc(C#N)cc(Oc2cc(Cl)ccc2OCCn2ccc(=O)[nH]c2=O)c1 [Compound 20, 5-(5-chloro-2-(2-(2,4-dioxo-3,4-dihydropyrimidin-1(2H)-yl)ethoxy)phenoxy)isophthalonitrile] | – | – | EC50 [1]: 21 µM; EC50 [2]: 2.2 µM
14 | N#Cc1cccc(Cl)c1Oc1cc(Cl)ccc1OCCn1ccc(=O)[nH]c1=O [Compound 21, 3-chloro-2-(5-chloro-2-(2-(2,4-dioxo-3,4-dihydropyrimidin-1(2H)-yl)ethoxy)phenoxy)benzonitrile] | – | 50 | –
15 | N#Cc1cc(Cl)cc(Oc2cc(Cl)ccc2OCCn2ccc(=O)[nH]c2=O)c1 [Compound 22, 3-chloro-5-(5-chloro-2-(2-(2,4-dioxo-3,4-dihydropyrimidin-1(2H)-yl)ethoxy)phenoxy)benzonitrile] | – | – | EC50 [1]: 6.7 µM; EC50 [2]: 1.2 µM
16 | N#Cc1ccc(Cl)c(Oc2ccc(Cl)cc2OCCn2ccc(=O)[nH]c2=O)c1 [Compound 23, 4-chloro-3-(4-chloro-2-(2-(2,4-dioxo-3,4-dihydropyrimidin-1(2H)-yl)ethoxy)phenoxy)benzonitrile] | – | 60 | –
17 | N#Cc1cc(C#N)cc(Oc2ccc(Cl)cc2OCCn2ccc(=O)[nH]c2=O)c1 [Compound 24, 5-(4-chloro-2-(2-(2,4-dioxo-3,4-dihydropyrimidin-1(2H)-yl)ethoxy)phenoxy)isophthalonitrile] | – | > 100 | –
18 | N#Cc1cc(Cl)cc(Oc2ccc(Cl)cc2OCCn2ccc(=O)[nH]c2=O)c1 [Compound 25, 3-chloro-5-(4-chloro-2-(2-(2,4-dioxo-3,4-dihydropyrimidin-1(2H)-yl)ethoxy)phenoxy)benzonitrile] | 0.014 | > 100 | EC50 [1]: 0.52 µM; EC50 [2]: 1.7 µM; cytotoxicity, limit of the tested concentration range (MT-2 human T-cells; human): > 100 µM
19 | N#Cc1cc(Cl)cc(Oc2ccc(Cl)cc2OCCn2cc(F)c(=O)[nH]c2=O)c1 [Compound 26, 3-chloro-5-(4-chloro-2-(2-(5-fluoro-2,4-dioxo-3,4-dihydropyrimidin-1(2H)-yl)ethoxy)phenoxy)benzonitrile] | – | – | EC50 [1]: 0.62 µM; EC50 [2]: 1.7 µM
20 | N#Cc1cc(Cl)cc(Oc2ccc(C#N)cc2OCCn2ccc(=O)[nH]c2=O)c1 [Compound 28, 4-(3-chloro-5-cyanophenoxy)-3-(2-(2,4-dioxo-3,4-dihydropyrimidin-1(2H)-yl)ethoxy)benzonitrile] | – | > 100 | –

Row | Structure (SMILES) | EC50 (WT HIV-1 (IIIB strain); [3]) [µM] | CC50 (MT-2 human T-cells; human) [µM] | further results
21 | N#Cc1cc(Cl)cc(Oc2ccc(C#N)cc2OCCn2cc(Cl)c(=O)[nH]c2=O)c1 [Compound 29, 3-(2-(5-chloro-2,4-dioxo-3,4-dihydropyrimidin-1(2H)-yl)ethoxy)-4-(3-chloro-5-cyanophenoxy)benzonitrile] | – | 94 | –
22 | N#Cc1ccc(Oc2ccccc2Cl)c(OCCn2ccc(=O)[nH]c2=O)c1 [Compound 30, 4-(2-chlorophenoxy)-3-(2-(2,4-dioxo-3,4-dihydropyrimidin-1(2H)-yl)ethoxy)benzonitrile] | 0.27 | > 100 | –
23 | N#Cc1ccc(Oc2cc(Cl)ccc2Cl)c(OCCn2ccc(=O)[nH]c2=O)c1 [Compound 31, 4-(2,5-dichlorophenoxy)-3-(2-(2,4-dioxo-3,4-dihydropyrimidin-1(2H)-yl)ethoxy)benzonitrile] | 0.043 | – | EC50 [1]: 0.92 µM; EC50 [2]: 2.8 µM
24 | N#Cc1ccc(Oc2cc(Cl)cc(Cl)c2)c(OCCn2ccc(=O)[nH]c2=O)c1 [Compound 32, 4-(3,5-dichlorophenoxy)-3-(2-(2,4-dioxo-3,4-dihydropyrimidin-1(2H)-yl)ethoxy)benzonitrile] | 0.02 | – | EC50 [1]: 0.8 µM; EC50 [2]: > 43 µM
25 | N#Cc1ccc(Oc2cc(Cl)ccc2Cl)c(OCCc2ccncc2)c1 [Compound 33, 4-(2,5-dichlorophenoxy)-3-(2-(pyridin-4-yl)ethoxy)benzonitrile] | 0.76 | – | –
26 | N#Cc1ccc(Oc2cc(Cl)ccc2Cl)c(OCc2ccncc2)c1 [Compound 34] | 12 | – | –
27 | N#Cc1ccc(Oc2cc(Cl)ccc2Cl)c(COCc2ccncc2)c1 [Compound 35, 4-(2,5-dichlorophenoxy)-3-((pyridin-4-ylmethoxy)methyl)benzonitrile] | 1.8 | – | –
28 | COc1cc(Cl)ccc1Oc1cc(Cl)cc(C#N)c1 [Compound 36, 3-chloro-5-(4-chloro-2-methoxyphenoxy)benzonitrile] | 9.9 | – | –
29 | N#C/C=C/c1cccc(Oc2ccc(C#N)cc2OCCn2ccc(=O)[nH]c2=O)c1 [Compound 40, (E)-4-(3-(2-cyanovinyl)phenoxy)-3-(2-(2,4-dioxo-3,4-dihydropyrimidin-1(2H)-yl)ethoxy)benzonitrile] | 0.015 | – | EC50 [1]: 0.98 µM; EC50 [2]: 8 µM
30 | N#C/C=C/c1cccc(Oc2ccc(Cl)cc2OCCn2ccc(=O)[nH]c2=O)c1 [Compound 41, (E)-3-(3-(4-chloro-2-(2-(2,4-dioxo-3,4-dihydropyrimidin-1(2H)-yl)ethoxy)phenoxy)phenyl)acrylonitrile] | 0.005 | – | EC50 [1]: 0.37 µM; EC50 [2]: 1.6 µM
31 | N#Cc1cc(F)c(Oc2ccccc2Cl)c(OCCn2ccc(=O)[nH]c2=O)c1 [Compound 44, 4-(2-chlorophenoxy)-3-(2-(2,4-dioxo-3,4-dihydropyrimidin-1(2H)-yl)ethoxy)-5-fluorobenzonitrile] | 0.16 | > 100 | –
32 | O=c1ccn(CCOc2cc(Cl)cc(Cl)c2Oc2ccccc2Cl)c(=O)[nH]1 [Compound 45, 1-(2-(3,5-dichloro-2-(2-chlorophenoxy)phenoxy)ethyl)pyrimidine-2,4(1H,3H)-dione] | 0.83 | 13 | –
33 | COCCOc1cccc(Oc2ccc(C#N)cc2OCCn2ccc(=O)[nH]c2=O)c1 [Compound 46, 3-(2-(2,4-dioxo-3,4-dihydropyrimidin-1(2H)-yl)ethoxy)-4-(3-(2-methoxyethoxy)phenoxy)benzonitrile] | 0.54 | > 100 | –
34 | N#Cc1ccc(Oc2cccc(OCCCO)c2)c(OCCn2ccc(=O)[nH]c2=O)c1 [Compound 47, 3-(2-(2,4-dioxo-3,4-dihydropyrimidin-1(2H)-yl)ethoxy)-4-(3-(3-hydroxypropoxy)phenoxy)benzonitrile] | 1.8 | > 100 | –
35 | N#C/C=C/c1cc(F)cc(Oc2ccc(Br)cc2OCCn2ccc(=O)[nH]c2=O)c1 [JLJ511] | – | – | EC50 (WT HIV-1 (IIIB strain); [4]): 0.0018 µM; CC50 (MT-2 human T-cells): 15 µM
36 | N#C/C=C/c1cc(Br)cc(Oc2ccc(Cl)cc2OCCn2ccc(=O)[nH]c2=O)c1 [JLJ518] | – | – | EC50 (WT HIV-1 (IIIB strain); [4]): 0.0052 µM; CC50 (MT-2 human T-cells): 80 µM
37 | N#C/C=C/c1cc(F)cc(Oc2ccc(OCCN3CCOCC3)cc2OCCn2ccc(=O)[nH]c2=O)c1 [JLJ526] | – | – | EC50 (WT HIV-1 (IIIB strain); [4]): 0.52 µM; CC50 (MT-2 human T-cells): 27 µM
38 | N#C/C=C/c1cc(Cl)cc(Oc2ccc(OCCN3CCOCC3)cc2OCCn2ccc(=O)[nH]c2=O)c1 [JLJ530] | – | – | EC50 (WT HIV-1 (IIIB strain); [4]): 1.1 µM; CC50 (MT-2 human T-cells): 100 µM
39 | N#C/C=C/c1cc(Cl)cc(Oc2ccc(Br)cc2OCCn2ccc(=O)[nH]c2=O)c1 [JLJ531] | – | – | EC50 (WT HIV-1 (IIIB strain); [4]): 0.0091 µM; CC50 (MT-2 human T-cells): 13 µM
